Test results: paper PMC10388363, “Novel 1,4-Dihydropyridines as Specific Binders and Activators of SIRT3 Impair Cell Viability and Clonogenicity and Downregulate Hypoxia-Induced Targets in Cancer Cells” (Journal of Medicinal Chemistry, 2023)
Read-outs that look alike come from different tables or passages of the source.

Key:
[1] = tested on: HIF-1α, EPAS-1, and CA-IX protein expression in MDA-MB-231; assay: Western blot of HIF-1α, EPAS-1 and CA-IX in MDA-MB-231 cells under hypoxia; type: cell-based, human; conditions: MDA-MB-231, 50 μM, 48 h, hypoxia
Description: (§1) Based on these findings, we decided to assess the ability of the SIRT3 activators 3a–d to impair HIF-1α, EPAS-1, and CA-IX protein expression in CAL-62 (Figure 10A–F) and MDA-MB-231 (Figure 11A–F) cell lines treated with the compounds at 50 μM for 48 h and under hypoxia conditions.
(§2) Breast cancer cell line MDA-MB-231, anaplastic thyroid cancer cell line CAL-62 and human keratinocytes HaCaT were purchased from ATCC and were cultured in RPMI 1640 medium (R0883 Sigma Aldrich-MERCK) (MDA-MB-231 and CAL-62) or DMEM medium (11965092, Gibco) supplemented with 10% fetal bovine serum (Sigma-Aldrich-MERCK, F9665), 2 mM glutamine (G7513; Sigma-Aldrich-MERCK), 100 units/mL penicillin and 0.1 mg/mL streptomycin (P0781; Sigma-Aldrich-MERCK). Adherent cells were detached by Trypsin–EDTA solution (TA049; Sigma-Aldrich-MERCK). Cells were maintained at 37 °C in humidified incubator with 5% CO2. Cells were treated with […] (CoCl2) (Merck; C8661) dissolved in distilled, sterile water for 24 h to induce hypoxia (200 μM). Hypoxic and normoxic cells were also treated with 10/50 μM of the indicated compounds (dissolved in DMSO) for 48 h, maintaining the CoCl2 in the culture medium for hypoxic conditions. SIRT3 inhibitor 3-TYP was dissolved in DMSO and added to a final concentration of 1 μM for 24 and/or 48 h.
(§3) The following antibodies were used in this study: ACTB (Merck; A5316), HIF1-α (Cell Signaling; 14179), HIF2/EPAS-1 (Santa Cruz Biotechnology sc-13596), HXKII (Santa Cruz Biotechnology sc-6521), CAIX (Novus Biotechnology NB100-417), SIRT3 (Cell Signaling; 2627S), MnSOD (Abcam ab13533), MnSOD K68 (Abcam ab137037), MnSOD K122 (Abcam ab214675), peroxidase-conjugated AffiniPure Goat Anti-Rabbit IgG (H + L) (Jackson ImmunoResearch; 111-035-003), and peroxidase-conjugated AffiniPure Goat Anti-Mouse IgG (H + L) (Jackson ImmunoResearch; 115-035-062).
(§4) Treated and untreated cells were collected and centrifuged at 3000 rpm for 5 min. After removing the supernatant, cells were lysed in 70 μL of lysis buffer containing: 50 mM Tris-Cl (Merck; 93352), 250 mM sodium chloride (NaCl, Merck; S7653), 5 mM ethylenediaminetetraacetic acid (EDTA; Merck; E6758), 0.1% Triton X-100 and 0.1 mM dithiothreitol (Merck; D9163) plus 1 mM phenylmethylsulfonyl fluoride (PMSF, Merck; 93482), protease inhibitor cocktail (PI; Merck; P8340), 1 mM sodium orthovanadate (NA3VO4, Merck; S6508), and 10 mM sodium fluoride (NaF, Merck; 201154) (lysis buffer). After 30 min on ice, samples were centrifuged at 13,000 rpm for 10 min at 4 °C, and the supernatants collected. Protein concentration was determined by the Bradford assay (Bio-Rad; 500-0205). The equivalent of 15 or 50 μg of protein was boiled for 5 min, electrophoresed onto denaturing SDS-PAGE gel, and transferred onto a […] nitrocellulose membrane (Bio-Rad; 162-0115). After blocking with 5% milk, membranes were incubated with the appropriate primary antibody overnight. The next day, after three washes with 0.1% Tween 20 (Merck; P9416) in PBS (PBST) for 30 min at rt, membranes were incubated with the appropriate secondary antibody for 1 h at rt. After three more washes in PBST, the detection of the relevant protein was assessed by enhanced chemiluminescence (Lite Ablot TURBO, Euro-Clone; EMP012001). Densitometric analysis of the bands, relative to ACTB, was performed using ImageJ Software v1.51 (NIH, Bethesda, MD, USA).

[2] = tested on: HIF-1α, EPAS-1, and CA-IX protein expression in CAL-62; assay: Western blot of HIF-1α, EPAS-1 and CA-IX in CAL-62 cells under hypoxia; type: cell-based; conditions: CAL-62, 50 μM, 48 h, hypoxia
Description: as §1, §2, §3, §4

[3] = tested on: GDH activity in MDA-MB-231 cells; assay: GDH activity assay in lysates of treated MDA-MB-231 cells; type: cell-based, human; conditions: 50 μM, 4 h
Description: Selected compounds 3a–d were tested in triple-negative breast cancer MDA-MB-231 cells to evaluate their effects on SIRT3 physiological substrates. First, the effect on the activity of GDH (an established SIRT3 substrate activated through deacetylation[60]−[62]) was investigated by a coupled enzyme assay. […] These effects of SIRT3 activators clearly phenocopied those observed in the SIRT3-overexpressing MDA-MB-231 cells (SIRT3^+) (Figure 6).
GDH activity in cells treated or not with the SIRT3 activators 3a–d and the reference compounds 2 and 3 was measured using a GDH activity assay kit (MAK099, Merck) following the manufacturer’s instructions. Briefly, 10^6 cells were lysed in 40 μL of GDH assay buffer and kept for 10 min in ice. Afterward, lysates were centrifuged to collect supernatants. Ten microliters of supernatant were added to 40 μL of GDH buffer and 100 μL of a mix containing GDH assay buffer, developer, and glutamate. The whole mix was transferred into a 96-well plate and incubated at 37 °C for 3 min. Finally, absorbance was read at 450 nm using a GloMax multi detection system (Promega, Milan, Italy). The absorbance of the assay buffer was subtracted from each experimental sample.

MDA-MB-231 cells = assay: Cell viability / cell death, trypan blue exclusion, MDA-MB-231; type: cell-based, human; conditions: for IC50: MDA-MB-231, 48 h, read-out: IC50 reducing cell viability
Description: Afterward, the selected compounds 3a–d were assayed at 50 μM for 24 and 48 h in CAL-62 and MDA-MB-231 cells to assess their ability to impair the cell viability and colony formation in either normoxia or hypoxia-induced condition, the latter obtained by adding a 200 μM cobalt chloride solution, as described in previous reports[69] (Figure 8). Most cancer cells, mainly solid types, are known to have an altered metabolism due to hypoxia, a non-physiological level of oxygen tension, which contributes to therapy resistance by causing cellular quiescence.[70] Moreover, hypoxic cancer cells can induce several factors that lead to cell proliferation and colony formation.[71]
as §2
Cell viability was assessed by the trypan blue exclusion assay. At the end of treatments, cells were harvested and stained with 0,4% trypan blue (Merck; T8154). The cell suspension was applied to a hemocytometer and counted with phase contrast microscopy (NIKON EclipseTE2000U, Nikon Netherlands, Amsterdam, The Netherlands).

[4] = MDA-MB-231, 50 μM, 48 h, hypoxia
[5] = MDA-MB-231, 50 μM, 48 h, normoxia

| SMILES | EPAS-1 protein levels [1] | HIF-1α protein levels [1] | EPAS-1 protein expression [2] | effect on GDH activity in cell lysates [3] | CA-IX protein expression [1] | CA-IX protein expression [2] | HIF-1α protein expression [2] | IC50 (MDA-MB-231 cells; Homo sapiens, hypoxia) [µM] | IC50 (MDA-MB-231 cells; Homo sapiens, normoxia) [µM] | viability at 10 µM (MDA-MB-231 cells; Homo sapiens, MDA-MB-231, 10 μM, 48 h, read-out: Cell viability (%) T48) [%] | reduction in cell viability (%) at 50 µM (MDA-MB-231 cells; Homo sapiens, MDA-MB-231, 50 μM, 24 h, normoxia, read-out: viability impairment) [%] | Cell death (%) T48 (MDA-MB-231 cells; MDA-MB-231, 10 μM, 48 h) | reduction viability (MDA-MB-231 cells; [4]) [%] | reduction viability (MDA-MB-231 cells; [5]) [%] | GDH activation [3] |
| --- | --- | --- | --- | --- | --- | --- | --- | --- | --- | --- | --- | --- | --- | --- | --- |
| CCOC(=O)C1=CN(C(=O)c2ccc(OC)c(OC)c2)C=C(C(=O)OCC)C1c1ccccc1 [Compound 3c, Diethyl 1-(3,4-dimethoxybenzoyl)-4-phenyl-1,4-dihydropyridine-3,5-dicarboxylate] | significantly reduced | significantly reduced | downregulated | increase in GDH activity | – | – | – | – | – | – | – | – | – | – | – |
| CCOC(=O)C1=CN(C(=O)c2cc(OC)cc(OC)c2)C=C(C(=O)OCC)C1c1ccccc1 [Compound 3d, Diethyl 1-(3,5-dimethoxybenzoyl)-4-phenyl-1,4-dihydropyridine-3,5-dicarboxylate] | significantly reduced | significantly reduced | downregulated | increase in GDH activity | most potent | significantly downregulated | decrease | 10.6 | 3.64 | 36.3 | 34 | 63,6% | 75 | 75 | around 175% |
| CCOC(=O)C1=CN(C(=O)c2cccc(OC)c2)C=C(C(=O)OCC)C1c1ccccc1 [Compound 3a, Diethyl 1-(3-methoxybenzoyl)-4-phenyl-1,4-dihydropyridine-3,5-dicarboxylate] | – | – | – | increase in GDH activity | – | significantly downregulated | – | – | – | – | – | – | 11 | 60 | – |
